From ChEMBL document CHEMBL1140940, “Pyrido[2,3-d]pyrimidin-5-ones: a novel class of antiinflammatory macrophage colony-stimulating factor-1 receptor inhibitors” (J Med Chem, 2009)
Calls of active or inactive are those of the source. The calls are words filed in the database; no cut-off is given here.

What was measured:
Insulin receptor = Insulin receptor (Homo sapiens, UniProt P06213); assay: Inhibition of IRKbeta by fluorescence polarization competition immunoassay
[1] = Volume of distribution at steady state in mouse at 2 mg/kg, iv; format: ADME, organism-based; parameters: dose 2 mg/kg, route intravenous; settings: in vivo, read-out: Vdss
[2] = Clearance in mouse at 2 mg/kg, iv; format: ADME, organism-based; parameters: dose 2 mg/kg, route intravenous; settings: in vivo
[3] = Half life in mouse at 10 mg/kg, po; format: ADME, organism-based; parameters: dose 10 mg/kg, route oral; settings: in vivo
[4] = Cmax in mouse at 10 mg/kg, po; format: ADME, organism-based; parameters: dose 10 mg/kg, route oral; settings: in vivo
[5] = Oral bioavailability in mouse at 10 mg/kg; format: ADME, organism-based; settings: in vivo
[6] = Cmax in dog at 10 mg/kg, po; format: ADME, organism-based, Canis lupus familiaris; parameters: dose 10 mg/kg, route oral; settings: in vivo
[7] = Cmax in monkey at 10 mg/kg, po; format: ADME, organism-based, Macaca mulatta; parameters: dose 10 mg/kg, route oral; settings: rhesus monkey, in vivo
[8] = Half life in dog at 2 mg/kg, iv; format: ADME, organism-based, Canis lupus familiaris; parameters: dose 2 mg/kg, route intravenous; settings: in vivo
[9] = Clearance in dog at 2 mg/kg, iv; format: ADME, organism-based, Canis lupus familiaris; parameters: dose 2 mg/kg, route intravenous; settings: in vivo
[10] = Volume of distribution at steady state in dog at 2 mg/kg, iv; format: ADME, organism-based, Canis lupus familiaris; parameters: dose 2 mg/kg, route intravenous; settings: in vivo, read-out: Vdss
[11] = Oral bioavailability in dog at 10 mg/kg; format: ADME, organism-based, Canis lupus familiaris; settings: in vivo
[12] = Half life in monkey at 2 mg/kg, iv; format: ADME, organism-based, Macaca mulatta; parameters: dose 2 mg/kg, route intravenous; settings: rhesus monkey, in vivo
[13] = Clearance in monkey at 2 mg/kg, iv; format: ADME, organism-based, Macaca mulatta; parameters: dose 2 mg/kg, route intravenous; settings: rhesus monkey, in vivo
[14] = Plasma concentration CSF1-induced B6C3F1 mouse at 3 mg/kg, po after 6 hrs; format: ADME, organism-based; parameters: dose 3 mg/kg, route oral
Rattus norvegicus [15] = assay: Reversal of ankle swelling in streptococcal cell wall-induced Lewis rat chronic arthritis model at 3 mg/kg, po twice daily administered on day 19 post streptococcal cell wall challenge; format: functional, organism-based; parameters: dose 3 mg/kg
Rattus norvegicus [16] = assay: Reversal of ankle swelling in streptococcal cell wall-induced Lewis rat chronic arthritis model at 1 mg/kg, po twice daily administered on day 19 post streptococcal cell wall challenge; format: functional, organism-based; parameters: dose 1 mg/kg
Rattus norvegicus [17] = assay: Inhibition of ankle swelling in Freund's complete adjuvant-induced Lewis rat arthritis model at 1 mg/kg, po twice daily administered on day 8 post adjuvant challenge measured on day 21 post adjuvant challenge relative to control; format: functional
Rattus norvegicus [18] = assay: Inhibition of ankle swelling in Freund's complete adjuvant-induced Lewis rat arthritis model at 3 mg/kg, po twice daily administered on day 8 post adjuvant challenge measured on day 21 post adjuvant challenge relative to control; format: functional
Rattus norvegicus [19] = assay: Inhibition of ankle swelling in Freund's complete adjuvant-induced Lewis rat arthritis model at 10 mg/kg, po twice daily administered on day 8 post adjuvant challenge measured on day 21 post adjuvant challenge relative to control; format: functional
Rattus norvegicus [20] = assay: Antiinflammatory effect in Freund's complete adjuvant-induced Lewis rat arthritis model assessed as prevention of bone erosion at 10 mg/kg, po twice daily administered on day 8 post adjuvant challenge measured on day 21 post adjuvant challenge relative to control; format: functional, organism-based; parameters: dose 10 mg/kg
Rattus norvegicus [21] = assay: Antiinflammatory effect in Freund's complete adjuvant-induced Lewis rat arthritis model assessed as prevention of osteoclastogenesis at 1 mg/kg, po twice daily administered on day 8 post adjuvant challenge measured on day 21 post adjuvant challenge relative to control; format: functional, organism-based; parameters: dose 1 mg/kg
Rattus norvegicus [22] = assay: Antiinflammatory effect in Freund's complete adjuvant-induced Lewis rat arthritis model assessed as prevention of osteoclastogenesis at 3 mg/kg, po twice daily administered on day 8 post adjuvant challenge measured on day 21 post adjuvant challenge relative to control; format: functional, organism-based; parameters: dose 3 mg/kg
[23] = Plasma concentration in Freund's complete adjuvant-induced Lewis rat arthritis model at […], po twice daily administered on day 8 post adjuvant challenge measured 7 days after last dose; format: ADME, organism-based; parameters: dose 0.33 mg/kg, route oral
[24] = Plasma concentration in Freund's complete adjuvant-induced Lewis rat arthritis model at 3 mg/kg, po twice daily administered on day 8 post adjuvant challenge measured 7 days after last dose; format: ADME, organism-based; parameters: dose 3 mg/kg, route oral
[25] = Metabolic stability in rat liver microsomes after 10 mins; format: ADME, Microsome; settings: read-out: Stability
[26] = Cmax in Sprague-Dawley rat at 10 mg/kg, po; format: ADME, organism-based; parameters: dose 10 mg/kg, route oral; settings: in vivo
[27] = Clearance in Sprague-Dawley rat at 2 mg/kg, iv; format: ADME, organism-based; parameters: dose 2 mg/kg, route intravenous; settings: in vivo
[28] = Volume of distribution at steady state in Sprague-Dawley rat at 2 mg/kg, iv; format: ADME, organism-based; parameters: dose 2 mg/kg, route intravenous; settings: in vivo, read-out: Vdss
[29] = Oral bioavailability in Sprague-Dawley rat at 10 mg/kg; format: ADME, organism-based; settings: in vivo
[30] = Metabolic stability in human liver microsomes after 10 mins; format: ADME, Microsome; settings: read-out: Stability
Rattus norvegicus [31] = assay: Toxicity in rat assessed as tolerability at 10 mg/kg; format: organism-based; parameters: dose 10 mg/kg; settings: in vivo

Insulin receptor, sequence (P06213 28-758 limits assumed): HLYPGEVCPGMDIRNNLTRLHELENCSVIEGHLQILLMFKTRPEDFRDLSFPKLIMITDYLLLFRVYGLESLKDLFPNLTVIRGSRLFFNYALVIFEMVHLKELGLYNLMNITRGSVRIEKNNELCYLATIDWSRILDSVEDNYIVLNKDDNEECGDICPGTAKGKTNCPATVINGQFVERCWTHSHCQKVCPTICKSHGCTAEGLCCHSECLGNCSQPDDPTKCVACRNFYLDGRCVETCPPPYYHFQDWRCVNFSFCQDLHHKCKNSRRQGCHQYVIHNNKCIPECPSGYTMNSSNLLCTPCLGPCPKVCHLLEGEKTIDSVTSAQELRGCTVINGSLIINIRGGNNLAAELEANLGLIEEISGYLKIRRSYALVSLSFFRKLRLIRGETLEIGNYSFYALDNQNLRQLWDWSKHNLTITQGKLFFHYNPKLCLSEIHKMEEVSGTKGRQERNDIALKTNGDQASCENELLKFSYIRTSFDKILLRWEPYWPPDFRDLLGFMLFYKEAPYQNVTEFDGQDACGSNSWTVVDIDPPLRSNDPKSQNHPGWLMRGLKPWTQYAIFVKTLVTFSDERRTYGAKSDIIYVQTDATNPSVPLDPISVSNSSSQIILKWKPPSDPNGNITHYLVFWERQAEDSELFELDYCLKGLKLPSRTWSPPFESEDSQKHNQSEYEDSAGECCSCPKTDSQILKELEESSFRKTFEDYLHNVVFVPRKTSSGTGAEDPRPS
Insulin receptor, sequence (P06213 763-1382 limits assumed): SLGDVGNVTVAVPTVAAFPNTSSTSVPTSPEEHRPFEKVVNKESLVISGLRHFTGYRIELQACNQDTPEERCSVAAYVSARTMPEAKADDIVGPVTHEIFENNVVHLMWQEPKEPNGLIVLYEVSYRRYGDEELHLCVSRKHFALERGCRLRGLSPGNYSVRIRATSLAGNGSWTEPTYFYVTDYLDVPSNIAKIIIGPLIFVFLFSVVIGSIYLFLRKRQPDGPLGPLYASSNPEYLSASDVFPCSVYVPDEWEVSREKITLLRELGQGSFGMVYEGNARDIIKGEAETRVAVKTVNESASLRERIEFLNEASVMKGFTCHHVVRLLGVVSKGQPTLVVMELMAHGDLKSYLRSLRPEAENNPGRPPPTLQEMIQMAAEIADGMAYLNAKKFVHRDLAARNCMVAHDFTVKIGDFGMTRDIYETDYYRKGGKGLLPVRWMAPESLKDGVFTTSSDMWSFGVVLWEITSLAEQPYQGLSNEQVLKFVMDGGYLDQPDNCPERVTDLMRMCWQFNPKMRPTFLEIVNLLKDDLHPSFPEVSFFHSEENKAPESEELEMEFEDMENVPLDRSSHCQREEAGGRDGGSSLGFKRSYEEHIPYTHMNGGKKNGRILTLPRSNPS

## CONC(=O)c1cn(-c2ccc3c(c2)CCC3)c2nc(Nc3ccc(C4CCN(C)CC4)cc3)ncc2c1=O
Insulin receptor
  IC50: 3.7 µM
[1]
  Vd: 3.6 L/kg
[2]
  clearance: 34 mL/min/kg
[3]
  half-life: 4 h
[4]
  Cmax: 1600 nM
[5]
  bioavailability: 51%
[6]
  Cmax: 120 nM
[7]
  Cmax: 60 nM
[8]
  half-life: 9.3 h
[9]
  clearance: 30 mL/min/kg
[10]
  Vd: 20.3 L/kg
[11]
  bioavailability: 33%
[12]
  half-life: 6.6 h
[13]
  clearance: 48.7 mL/min/kg
[14]
  concentration at 6 h: 290 nM
Rattus norvegicus [15]
  Activity: Active
Rattus norvegicus [16]
  Activity: Active
Rattus norvegicus [17]
  inhibition in vivo at 1 mg/kg: 2%
Rattus norvegicus [18]
  inhibition in vivo at 3 mg/kg: 8%
Rattus norvegicus [19]
  inhibition in vivo at 10 mg/kg: 17%
Rattus norvegicus [20]
  Activity: Active
Rattus norvegicus [21]
  Activity: Active
Rattus norvegicus [22]
  Activity: Active
[23]
  concentration at 168 h: 14 nM
[24]
  concentration at 168 h: 189 nM
[25]
  remaining at 10 min: 96%
[26]
  Cmax: 1600 nM
[27]
  clearance: 11 mL/min/kg
[28]
  Vd: 4.3 L/kg
[29]
  bioavailability: 100%
[30]
  remaining at 10 min: 87%
Rattus norvegicus [31]
  Activity: Non-toxic
